# Literature values, collected in PMC7617459, “Comparative Evaluation and Profiling of Chemical Tools for the Nuclear Hormone Receptor Family 2” (ACS pharmacology & translational science, 2025).
# pIC50, pKd: −log10 of the molar value.
# What was measured:
# Parameters in all cases: method as in PMID 33114319
# HNF4α [1] = details: ITC; cited from earlier work
# HNF4α [2] = details: reporter gene assay; cited from earlier work
# [3] = system: fructose-1,6-bisphosphatase 1 (FBP1); details: HepG2 cells; cited from earlier work
smiles,measurement,setting,value
OC(c1ccc(F)cc1)c1ccc(F)cc1 [compound 5],pKd,HNF4α [1],5.77
same,pIC50,HNF4α [2],4.62
same,expression of HNF4 target gene FBP1,[3],diminished expression
